Earlier results as cited in US20090143392A1, “Methods of Treating Obesity and Metabolic Disorders” (ELBION GMBH, priority 2007, published 2009).

Key:
[1] = tested on: apomorphine-induced stereotypies; details: rats; cited from earlier work
[2] = tested on: dopamine concentration in rat brain; details: cited from earlier work
[3] = tested on: haloperidol-induced catalepsy; details: rats; cited from earlier work

COc1ccc(Cc2nccc3cc(OC)c(OC)cc23)cc1OC [Papaverine]
effect on apomorphine-induced stereotypies [1]: reduces apomorphine-induced stereotypies
effect on dopamine concentration in rat brain [2]: reducing dopamine concentration in rat brain
effect on haloperidol-induced catalepsy [3]: increases haloperidol-induced catalepsy
